Reference: patent US10875855B2 (priority 2011, dated 2020)
Like-named read-outs stand apart in the source and are kept apart here.

Columns and labels:
[1] = test system: influenza A virus (A/PR/8/34); assay: MDCK cytopathic effect (CPE) cell protection assay, ATP detection; type: cell-based
[2] = test system: influenza A virus (A/PR/8/34); assay: microbe, parasite or virus in culture; type: cell-based; conditions: for EC99: read-out: bDNA EC99; for bDNA EC99 (uM), class / bDNA EC99: Table 2
[3] = Influenza A virus, PR/8, MDCK, 72 h, Table 1, MDCK cells, A/PR/8/34, 72 hours, 50% cell protection, mean all, class symbol, read-out: MDCK IC50
[4] = Influenza A virus, PR/8, Table 1, mean all, class symbol
[5] = Influenza A virus, PR/8, Table 1, viral RNA 50% of control wells, mean all, class symbol, read-out: bDNA EC50
[6] = Table 1, MDCK cells, A/PR/8/34, 72 hours, 50% cell protection, mean all, class symbol, read-out: MDCK IC50
[7] = Table 1, viral RNA 50% of control wells, mean all, class symbol, read-out: bDNA EC50
[8] = Table 1, mean all, class symbol
[9] = Influenza A virus, PR/8, MDCK, Table 2, class symbol in brackets, read-out: MDCK cell IC50 (uM), class
[10] = Influenza A virus, PR/8, MDCK, Table 2, comparison compounds of WO2005/095400, mean value, read-out: MDCK cell IC50
[11] = Influenza A virus, PR/8, Table 2, class symbol in brackets, read-out: bDNA EC50 (uM), class
[12] = Influenza A virus, PR/8, Table 2, comparison compounds of WO2005/095400, mean value, read-out: bDNA EC50
[13] = comparison compounds of WO2005/095400, mean value

Compound: CC(C)(C)[C@@H](CCC(=O)O)Nc1nc(-c2c[nH]c3ncc(F)cc23)ncc1F [Compound 20, (R)-4-((5-fluoro-2-(5-fluoro-1H-pyrrolo[2,3-b]pyridin-3-yl)pyrimidin-4-yl)amino)-5,5-dimethylhexanoic acid]
- IC50 [1, 3]: < 0.3 µM
- EC99 [2, 4]: < 0.3 µM
- EC50 [2, 5]: < 0.3 µM

Compound: CC1([C@@H](CC(=O)O)Nc2nc(-c3c[nH]c4ncc(F)cc34)c(C#N)cc2F)CCCC1 [Compound 8, (R)-3-(5-cyano-3-fluoro-6-(5-fluoro-1H-pyrrolo[2,3-b]pyridin-3-yl)pyridin-2-ylamino)-3-(1-methylcyclopentyl)propanoic acid]
- IC50 [1, 6]: < 0.3 µM
- EC50 [2, 7]: < 0.3 µM

Compound: CC(C)(C)C(Cc1cc(O)no1)Nc1nc(-c2c[nH]c3ncc(F)cc23)ncc1F (racemic) [Compound 62, (+/−)-5-(2-((5-fluoro-2-(5-fluoro-1H-pyrrolo[2,3-b]pyridin-3-yl)pyrimidin-4-yl)amino)-3,3-dimethylbutyl)isoxazol-3-ol]
- IC50 [1, 3]: < 0.3 µM
- EC99 [2, 4]: 0.3 to 3.3 µM
- EC50 [2, 5]: 0.3 to 3.3 µM

Compound: COC(=O)C[C@@H](Nc1nc(-c2n[nH]c3ncc(Cl)cc23)ncc1F)C(C)(C)C [Compound 96]
- IC50 [1, 3]: < 0.3 µM
- EC99 [2, 4]: 0.3 to 3.3 µM
- EC50 [2, 5]: < 0.3 µM

Compound: CCC(C)(C)C(CC(=O)O)Nc1nc(-c2c[nH]c3ncc(F)cc23)ncc1F (stereo not shown) [Compound 17, 3-((5-fluoro-2-(5-fluoro-1H-pyrrolo[2,3-b]pyridin-3-yl)pyrimidin-4-yl)amino)-4,4-dimethylhexanoic acid]
- IC50 [1, 6]: 0.3 to 3.3 µM
- bDNA EC99 (uM) [2, 8]: C (EC99 (mean all)>3.3 μM)
- EC50 [2, 7]: 0.3 to 3.3 µM

Compound: CNS(=O)(=O)C[C@@H](Nc1nc(-c2c[nH]c3ncc(F)cc23)ncc1F)C(C)(C)C [Compound 19, (S)-2-(5-fluoro-2-(5-fluoro-1H-pyrrolo[2,3-b]pyridin-3-yl)pyrimidin-4ylamino)-N,3,3-trimethylbutane-1-sulfonamide]
- IC50 [1, 3]: < 0.3 µM
- EC99 [2, 4]: < 0.3 µM
- EC50 [2, 5]: < 0.3 µM

Compound: CNS(=O)(=O)C[C@H](Nc1nc(-c2c[nH]c3ncc(F)cc23)ncc1F)C(C)(C)C [Compound 38, (R)-2-((5-fluoro-2-(5-fluoro-1H-pyrrolo[2,3-b]pyridin-3-yl)pyrimidin-4-yl)amino)-N,3,3-trimethylbutane-1-sulfonamide]
- IC50 [1, 3]: > 3.3 µM
- EC99 [2, 4]: > 3.3 µM
- EC50 [2, 5]: > 3.3 µM

Compound: CCOC(=O)CC[C@@H](Nc1nc(-c2c[nH]c3ncc(F)cc23)ncc1F)C(C)(C)C [Compound 23, (R)-ethyl 4-((5-fluoro-2-(5-fluoro-1H-pyrrolo[2,3-b]pyridin-3-yl)pyrimidin-4-yl)amino)-5,5-dimethylhexanoate]
- IC50 [1, 3]: 0.3 to 3.3 µM
- EC99 [2, 4]: > 3.3 µM
- EC50 [2, 5]: 0.3 to 3.3 µM

Compound: CC1(C(CC(=O)O)Nc2nc(-c3c[nH]c4ncc(F)cc34)ncc2F)CC1 (stereo not shown) [Compound 74]
- IC50 [1, 3]: 0.3 to 3.3 µM
- EC99 [2, 4]: 0.3 to 3.3 µM
- EC50 [2, 5]: 0.3 to 3.3 µM

Compound: O=C(O)CC(Nc1nc(-c2c[nH]c3ncc(F)cc23)ncc1F)C1(C(F)(F)F)CC1 (racemic) [Compound 93, (+/−)-3-((5-Fluoro-2-(5-fluoro-1H-pyrrolo[2,3-b]pyridin-3-yl)pyrimidin-4-yl)amino)-3-(1-(trifluoromethyl)cyclopropyl)propanoic acid]
- IC50 [1, 3]: 0.3 to 3.3 µM
- EC99 [2, 4]: > 3.3 µM
- EC50 [2, 5]: 0.3 to 3.3 µM

Compound: CCCNS(=O)(=O)C[C@@H](Nc1nc(-c2c[nH]c3ncc(F)cc23)ncc1F)C(C)(C)C [Compound 34, (S)-2-(5-Fluoro-2-(5-fluoro-1H-pyrrolo[2,3-b]pyridin-3-yl)pyrimidin-4-ylamino)-3,3-dimethyl-N-propylbutane-1-sulfonamide]
- IC50 [1, 3]: < 0.3 µM
- EC99 [2, 4]: 0.3 to 3.3 µM
- EC50 [2, 5]: < 0.3 µM

Compound: Cc1cnc2[nH]cc(-c3ncc(F)c(N[C@H](CC(=O)O)C(C)(C)C)n3)c2c1 [Compound 90, (R)-3-((5-fluoro-2-(5-methyl-1H-pyrrolo[2,3-b]pyridin-3-yl)pyrimidin-4-yl)amino)-4,4-dimethylpentanoic acid]
- IC50 [1, 3]: < 0.3 µM
- EC99 [2, 4]: 0.3 to 3.3 µM
- EC50 [2, 5]: < 0.3 µM

Compound: CC(C)(C)[C@@H](CS(=O)(=O)O)Nc1nc(-c2c[nH]c3ncc(F)cc23)c(C#N)cc1F [Compound 25, (S)-2-(5-cyano-3-fluoro-6-(5-fluoro-1H-pyrrolo[2,3-b]pyridin-3-yl)pyridin-2-ylamino)-3,3-dimethylbutane-1-sulfonic acid]
- IC50 [1, 3]: < 0.3 µM
- EC99 [2, 4]: < 0.3 µM
- EC50 [2, 5]: < 0.3 µM

Compound: CC(C)(C)[C@@H](CS(N)(=O)=O)Nc1nc(-c2c[nH]c3ncc(F)cc23)ncc1F [Compound 22, (S)-2-(5-fluoro-2-(5-fluoro-1H-pyrrolo[2,3-b]pyridin-3-yl)pyrimidin-4-ylamino)-3,3-dimethylbutane-1-sulfonamide]
- IC50 [1, 3]: < 0.3 µM
- EC99 [2, 4]: 0.3 to 3.3 µM
- EC50 [2, 5]: < 0.3 µM

Compound: CNC(=O)[C@H](C)Nc1nc(-c2c[nH]c3ncc(Cl)cc23)ncc1F [Compound C3, reference compound]
- IC50 [1, 9]: > 3.3 µM
- IC50 [1, 10]: > 20 µM
- EC50 [2, 11]: > 3.3 µM
- EC50 [2, 12]: 3.38 µM
- bDNA EC99 (uM), class ([2]; class symbol in brackets): C (EC99 (mean all)>3.3 μM)
- bDNA EC99 [2, 13]: 9.37 µM

Compound: CC(CF)(CF)C(CC(=O)O)Nc1nc(-c2c[nH]c3ncc(F)cc23)ncc1F (racemic) [Compound 84, (+/−)-5-Fluoro-3-((5-fluoro-2-(5-fluoro-1H-pyrrolo[2,3-b]pyridin-3-yl)pyrimidin-4-yl)amino)-4-(fluoromethyl)-4-methylpentanoic acid]
- IC50 [1, 3]: 0.3 to 3.3 µM
- EC99 [2, 4]: > 3.3 µM
- EC50 [2, 5]: 0.3 to 3.3 µM

Compound: C[C@@H](CC(=O)O)Nc1nc(-c2c[nH]c3ncc(Cl)cc23)ncc1F [Compound C4, reference compound]
- IC50 [1, 9]: 0.3 to 3.3 µM
- IC50 [1, 10]: 2.33 µM
- EC50 [2, 11]: > 3.3 µM
- EC50 [2, 12]: 6.4 µM
- bDNA EC99 (uM), class ([2]; class symbol in brackets): C (EC99 (mean all)>3.3 μM)
- bDNA EC99 [2, 13]: > 16.7 µM

Compound: CCNS(=O)(=O)C[C@@H](Nc1nc(-c2c[nH]c3ncc(F)cc23)ncc1F)C(C)(C)C [Compound 33, (S)—N-Ethyl-2-(5-fluoro-2-(5-fluoro-1H-pyrrolo[2,3-b]pyridin-3-yl)pyrimidin-4-ylamino)-3,3-dimethylbutane-1-sulfonamide]
- IC50 [1, 3]: < 0.3 µM
- EC99 [2, 4]: < 0.3 µM
- EC50 [2, 5]: < 0.3 µM

Compound: CC(C)(C)[C@@H](CC(=O)O)Nc1nc(-c2n[nH]c3ncc(Cl)cc23)ncc1F [Compound 97, (R)-3-((2-(5-chloro-1H-pyrazolo[3,4-b]pyridin-3-yl)-5-fluoropyrimidin-4-yl)amino)-4,4-dimethylpentanoic acid]
- IC50 [1, 3]: < 0.3 µM
- EC99 [2, 4]: < 0.3 µM
- EC50 [2, 5]: < 0.3 µM

Compound: CCOC(=O)CC(Nc1nc(-c2c[nH]c3ncc(F)cc23)ncc1F)C1(C)CCCCC1 (racemic) [Compound 77, (+/−)-ethyl 3-(5-fluoro-2-(5-fluoro-1H-pyrrolo[2,3-b]pyridin-3-yl)pyrimidin-4-ylamino)-3-(1-methylcyclohexyl)propanoate]
- IC50 [1, 3]: > 3.3 µM
- EC99 [2, 4]: > 3.3 µM
- EC50 [2, 5]: 0.3 to 3.3 µM

Compound: CC(C)(C)[C@@H](CC(O)C(F)(F)F)Nc1nc(-c2c[nH]c3ncc(F)cc23)ncc1F (stereo partly drawn) [Compound 67, (4R)-1,1,1-trifluoro-4-((5-fluoro-2-(5-fluoro-1H-pyrrolo[2,3-b]pyridin-3-yl)pyrimidin-4-yl)amino)-5,5-dimethylhexan-2-ol]
- IC50 [1, 6]: < 0.3 µM
- EC50 [2, 7]: < 0.3 µM

Compound: CC1(C(CC(=O)O)Nc2nc(-c3c[nH]c4ncc(F)cc34)ncc2F)CCC1 (stereo not shown) [Compound 63]
- IC50 [1, 3]: < 0.3 µM
- EC99 [2, 4]: < 0.3 µM
- EC50 [2, 5]: < 0.3 µM

Compound: CC(C)(C)C(Nc1nc(-c2c[nH]c3ncc(F)cc23)ncc1F)C1CC1C(=O)O (single isomer, unassigned) [Compound 51, 2-(1-((5-fluoro-2-(5-fluoro-1H-pyrrolo[2,3-b]pyridin-3-yl)pyrimidin-4-yl)amino)-2,2-dimethylpropyl)cyclopropanecarboxylic acid]
- IC50 [1, 3]: < 0.3 µM
- EC50 [2, 5]: < 0.3 µM
- bDNA EC99 (uM) [2, 8]: C (EC99 (mean all)>3.3 μM)

Compound: CC1(C(CC(=O)O)Nc2nc(-c3n[nH]c4ncc(F)cc34)ncc2F)CCCC1 (racemic) [Compound 12, (+/−)-3-(5-fluoro-2-(5-fluoro-1H-pyrazolo[3,4-b]pyridin-3-yl)pyrimidin-4-ylamino)-3-(1-methylcyclopentyl)propanoic acid]
- IC50 [1, 3]: < 0.3 µM
- EC99 [2, 4]: < 0.3 µM
- EC50 [2, 5]: < 0.3 µM

Compound: CC(C)(C)[C@@H](CC(=O)O)Nc1nc(-c2n[nH]c3ncc(F)cc23)ncc1F [Compound 5, (R)-3-((5-fluoro-2-(5-fluoro-1H-pyrazolo[3,4-b]pyridin-3-yl)pyrimidin-4-yl)amino)-4,4-dimethylpentanoic acid]
- IC50 [1, 3]: < 0.3 µM
- EC99 [2, 4]: < 0.3 µM
- EC50 [2, 5]: < 0.3 µM

Compound: CC(C)(C)[C@@H](CC(=O)O)Nc1nc(-c2c[nH]c3ncc(C#N)cc23)ncc1F [Compound 89, (R)-3-((2-(5-cyano-1H-pyrrolo[2,3-b]pyridin-3-yl)-5-fluoropyrimidin-4-yl)amino)-4,4-dimethylpentanoic acid]
- IC50 [1, 3]: < 0.3 µM
- EC99 [2, 4]: 0.3 to 3.3 µM
- EC50 [2, 5]: < 0.3 µM

Compound: CC(C)(C)[C@@H](CS(=O)(=O)O)Nc1nc(-c2c[nH]c3ncc(Cl)cc23)ncc1F [Compound 10, (S)-2-((2-(5-chloro-1H-pyrrolo[2,3-b]pyridin-3-yl)-5-fluoropyrimidin-4-yl)amino)-3,3-dimethylbutane-1-sulfonic acid]
- IC50 [1, 3]: < 0.3 µM
- EC99 [2, 4]: < 0.3 µM
- EC50 [2, 5]: < 0.3 µM
